According to BindingDB's records for doi:10.1021/acs.jnatprod.6b01127 (Beijing University of Chinese Medicine, 2017):

Each compound was assayed against Signal transducer and activator of transcription 3 (Homo sapiens, UniProt P40763) (assay: Inhibition of IL-6-Induced STAT3 activation (unknown origin) expressed in human HepG2 cells expressing pSTAT3-luciferase pre-incubated for 1 hr before IL-6 stimulation for 6 hrs by luciferase reporter gene assay).
Chain of Signal transducer and activator of transcription 3 (P40763 whole entry): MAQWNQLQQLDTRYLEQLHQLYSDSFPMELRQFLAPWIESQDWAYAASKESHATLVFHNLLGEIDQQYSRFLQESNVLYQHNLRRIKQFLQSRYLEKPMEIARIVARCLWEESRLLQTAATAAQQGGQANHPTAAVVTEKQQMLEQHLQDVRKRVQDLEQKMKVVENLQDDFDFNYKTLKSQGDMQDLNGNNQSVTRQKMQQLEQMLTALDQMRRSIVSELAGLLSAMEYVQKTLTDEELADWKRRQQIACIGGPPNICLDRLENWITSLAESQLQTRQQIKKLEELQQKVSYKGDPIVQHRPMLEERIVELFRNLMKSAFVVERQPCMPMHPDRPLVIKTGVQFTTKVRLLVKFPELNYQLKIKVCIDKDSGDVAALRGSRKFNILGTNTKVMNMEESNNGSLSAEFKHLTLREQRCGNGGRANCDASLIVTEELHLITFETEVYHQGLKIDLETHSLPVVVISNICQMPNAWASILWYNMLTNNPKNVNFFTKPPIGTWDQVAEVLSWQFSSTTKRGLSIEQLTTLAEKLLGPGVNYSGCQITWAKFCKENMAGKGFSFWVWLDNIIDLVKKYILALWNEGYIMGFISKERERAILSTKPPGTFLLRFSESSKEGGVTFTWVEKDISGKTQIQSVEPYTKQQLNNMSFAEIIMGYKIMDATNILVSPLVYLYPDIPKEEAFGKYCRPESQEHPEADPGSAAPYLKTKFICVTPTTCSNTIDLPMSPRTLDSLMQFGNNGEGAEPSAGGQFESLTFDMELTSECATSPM

Structure (SMILES) | IC50 [µM]
CCO[C@H]1C[C@@H]2C(C(=O)OC)=CO[C@@H](O[C@@H]3O[C@H](CO[C@H]4C[C@@H]5C(C(=O)OC)=CO[C@@H](O[C@@H]6O[C@H](CO)[C@@H](O)[C@H](O)[C@H]6O)[C@@H]5[C@H](C)O4)[C@@H](O)[C@H](O)[C@H]3O)[C@@H]2[C@H](C)O1 | > 100
COC(=O)C1=CO[C@@H](O[C@@H]2O[C@H](CO)[C@@H](O)[C@H](O)[C@H]2O)[C@@H]2[C@H](C)O[C@@H](OC)C[C@H]12 | 24.8
COC(=O)C1=CO[C@@H](O[C@@H]2O[C@H](CO)[C@@H](O)[C@H](O)[C@H]2O)[C@@H]2[C@H](C)O[C@H](OC)C[C@H]12 | 32.5
COC(=O)C1=CO[C@@H](O[C@@H]2O[C@H](CO)[C@@H](O)[C@H](O)[C@H]2O)[C@@H]2[C@@H](C)[C@@H](O[C@H]3C[C@@H]4C(C(=O)OC)=CO[C@@H](O[C@@H]5O[C@H](CO)[C@@H](O)[C@H](O)[C@H]5O)[C@@H]4[C@@H](C)O3)C[C@H]12 | 71.9
COC(=O)C1=CO[C@@H](O[C@@H]2O[C@H](CO)[C@@H](O[C@H]3C[C@@H]4C(C(=O)OC)=CO[C@@H](O[C@@H]5O[C@H](C)[C@@H](O)[C@H](O)[C@H]5O)[C@@H]4[C@H](C)O3)[C@H](O)[C@H]2O)[C@@H]2[C@@H](C)[C@@H](O)C[C@H]12 | 52.6
COC(=O)C1=CO[C@@H](O[C@@H]2O[C@H](CO[C@@H]3C[C@@H]4C(C(=O)OC)=CO[C@@H](O[C@@H]5O[C@H](CO)[C@@H](O)[C@H](O)[C@H]5O)[C@@H]4[C@H](C)O3)[C@@H](O)[C@H](O)[C@H]2O)[C@@H]2[C@@H](C)[C@@H](O)C[C@H]12 | 12.2
COC(=O)C1=CO[C@@H](O[C@@H]2O[C@H](C)[C@@H](O)[C@H](O)[C@H]2O)[C@@H]2[C@H](C)O[C@@H](O[C@@H]3[C@@H](O)[C@H](O[C@@H]4OC=C(C(=O)OC)[C@H]5C[C@@H](OC)O[C@@H](C)[C@@H]45)O[C@H](CO)[C@H]3O)C[C@H]12 | 29.7
COC(=O)C1=CO[C@@H](O[C@@H]2O[C@H](C)[C@@H](O)[C@H](O)[C@H]2O)[C@@H]2[C@H](C)O[C@@H](O[C@@H]3[C@@H](O)[C@H](O[C@@H]4OC=C(C(=O)OC)[C@H]5C[C@H](OC)O[C@@H](C)[C@@H]45)O[C@H](CO)[C@H]3O)C[C@H]12 | 11.9
CCO[C@H]1C[C@@H]2C(C(=O)OC)=CO[C@@H](O[C@@H]3O[C@H](CO)[C@@H](O)[C@H](O)[C@H]3O)[C@@H]2[C@H](C)O1 | 67
CCO[C@@H]1C[C@@H]2C(C(=O)OC)=CO[C@@H](O[C@@H]3O[C@H](CO[C@H]4C[C@@H]5C(C(=O)OC)=CO[C@@H](O[C@@H]6O[C@H](CO)[C@@H](O)[C@H](O)[C@H]6O)[C@@H]5[C@H](C)O4)[C@@H](O)[C@H](O)[C@H]3O)[C@@H]2[C@H](C)O1 | > 100
CCO[C@@H]1C[C@@H]2C(C(=O)OC)=CO[C@@H](O[C@@H]3O[C@H](CO)[C@@H](O)[C@H](O)[C@H]3O)[C@@H]2[C@H](C)O1 | > 100
COC(=O)C1=CO[C@@H](O[C@@H]2O[C@H](CO)[C@@H](O)[C@H](O)[C@H]2O)[C@@H]2[C@H](C)[C@@H](O)C[C@H]12 [7-Epi-Loganin] | 22.9
COC(=O)C1=CO[C@@H](O[C@@H]2O[C@H](CO)[C@@H](O)[C@H](O)[C@H]2O)[C@@H]2[C@H](C)O[C@H](O)C[C@H]12 [(7Alpha-Hydroxy)-Morroniside] | 7
COC(=O)C1=CO[C@@H](O[C@@H]2O[C@H](CO)[C@@H](O)[C@H](O)[C@H]2O)[C@@H]2[C@H](C)O[C@@H](O)C[C@H]12 [CHEBI:80852] | 6.9
C=C[C@H]1[C@H](O[C@@H]2O[C@H](CO)[C@@H](O)[C@H](O)[C@H]2O)OC=C2C(=O)OCC[C@H]21 [CHEBI:80907] | 89.5
COC(=O)C1=CO[C@@H](O[C@@H]2O[C@H](CO)[C@@H](O)[C@H](O)[C@H]2O)[C@@H]2[C@@H](C)[C@@H](O)C[C@H]12 [Loganin] | 14
O=c1c(-c2ccc(O)cc2)coc2cc(O)cc(O)c12 [Prunetol] | 24.8

Other lines, results leading:

IC50 [µM] | Structure (SMILES)
19.4 | COC(=O)C1=CO[C@@H](O[C@@H]2O[C@H](CO)[C@@H](O)[C@H](O)[C@H]2O)[C@@H]2[C@H](C)O[C@H](O[C@H]3[C@H](O[C@@H]4OC=C(C(=O)OC)[C@H]5C[C@@H](OC)O[C@@H](C)[C@@H]45)O[C@H](CO)[C@@H](O)[C@@H]3O)C[C@H]12
40.5 | COC(=O)C1=CO[C@@H](O[C@@H]2O[C@H](CO)[C@@H](O)[C@H](O)[C@H]2O[C@@H]2C[C@@H]3C(C(=O)OC)=CO[C@@H](O[C@@H]4O[C@H](CO)[C@@H](O)[C@H](O)[C@H]4O)[C@@H]3[C@H](C)O2)[C@@H]2[C@@H](C)[C@@H](O)C[C@H]12
27.6 | COC(=O)C1=CO[C@@H](O[C@@H]2O[C@H](CO[C@@H]3C[C@@H]4C(C(=O)OC)=CO[C@@H](O[C@@H]5O[C@H](CO)[C@@H](O)[C@H](O)[C@H]5O)[C@@H]4[C@H](C)O3)[C@@H](O)[C@H](O)[C@H]2O)[C@@H]2[C@H](C)O[C@H](OC)C[C@H]12
> 100 | COC(=O)C1=CO[C@@H](O[C@@H]2O[C@H](CO[C@H]3C[C@@H]4C(C(=O)OC)=CO[C@@H](O[C@@H]5O[C@H](CO)[C@@H](O)[C@H](O)[C@H]5O)[C@@H]4[C@H](C)O3)[C@@H](O)[C@H](O)[C@H]2O)[C@@H]2[C@H](C)O[C@@H](OC)C[C@H]12
43 | COC(=O)C1=CO[C@@H](O[C@@H]2O[C@H](CO[C@@H]3C[C@@H]4C(C(=O)OC)=CO[C@@H](O[C@@H]5O[C@H](CO)[C@@H](O)[C@H](O)[C@H]5O)[C@@H]4[C@H](C)O3)[C@@H](O)[C@H](O)[C@H]2O)[C@@H]2[C@H](C)O[C@@H](OC)C[C@H]12
21.9 | COC(=O)C1=CO[C@@H](O[C@@H]2O[C@H](CO)[C@@H](O)[C@H](O)[C@H]2O)[C@@H]2[C@H](C)O[C@H](O[C@H]3[C@H](O[C@@H]4OC=C(C(=O)OC)[C@H]5C[C@H](OC)O[C@@H](C)[C@@H]45)O[C@H](CO)[C@@H](O)[C@@H]3O)C[C@H]12
> 100 | COC(=O)C1=CO[C@@H](O[C@@H]2O[C@H](CO)[C@@H](O)[C@H](O)[C@H]2O)[C@@H]2[C@H](C)O[C@@H](O[C@H]3[C@H](O[C@@H]4OC=C(C(=O)OC)[C@H]5C[C@H](OC)O[C@@H](C)[C@@H]45)O[C@H](CO)[C@@H](O)[C@@H]3O)C[C@H]12
79.1 | COC(=O)C1=CO[C@@H](O[C@@H]2O[C@H](C)[C@@H](O)[C@H](O)[C@H]2O)[C@@H]2[C@H](C)O[C@@H](O[C@H]3[C@H](O)[C@@H](O)[C@H](O[C@@H]4OC=C(C(=O)OC)[C@H]5C[C@H](OC)O[C@@H](C)[C@@H]45)O[C@@H]3CO)C[C@H]12
47 | COC(=O)C1=CO[C@@H](O[C@@H]2O[C@H](CO)[C@@H](O)[C@H](O)[C@H]2O)[C@@H]2[C@H](C)O[C@@H](OC[C@H]3O[C@@H](O[C@@H]4OC=C(C(=O)OC)[C@H]5C[C@@H](OC)O[C@@H](C)[C@@H]45)[C@H](O)[C@@H](O)[C@@H]3O)C[C@H]12
